# Legend:
# [1] = tested on: Hard Red Spring Wheat; assay: Seed treatment of hard red spring wheat in pots; assay type: in vivo; details: seed coating 125 μl of 10^−6 M, 2 weeks after planting
# Experimental: (§1) Five grams of hard red spring wheat seeds were added to three separate 50 ml tubes. A water solution containing 0.5% ethanol was added to the control tube, 125 μl of 10^−6 M CO4 solution was added to the CO4 tube, and 125 μl of 10^−6 M CO8 solution was added to the CO8 tube. Each tube was then shaken to coat the seeds. Seeds were potted immediately following treatment into moistened SUNGRO® potting mix in 4×6×6 cm pots. Plants were watered by pouring water into the tray containing the pots up to about ¾ inch high. After sowing the seeds, the pots were randomly distributed (16 pots per treatment) throughout the tray and placed underneath continuous light at room temperature for 1 week. Liquid Fahräeus medium (plant fertilizer solution; see above) was applied every 2 days or when necessary. After a week, the pots were placed underneath 10 h light and 14 h dark cycle at room temperature for 1 week. After 1 week underneath 10 h light and 14 h dark cycle (2 weeks after planting), the plants were carefully removed from the pots, and as much soil as possible was shaken off. The remaining soil was removed by submerging the root system into a beaker of water. The number of primary roots (PR), lateral roots (LR), root system length (RSL) and dry weight (DW) was then measured for all plants.
# [2] = tested on: corn (maize); assay: Seed treatment of corn in pots; assay type: in vivo; details: seed coating 125 μl of 10^−6 M, 2 weeks after planting
# Experimental: as §1, with “corn (maize)” for “hard red spring wheat”
# [3] = tested on: rice knock-out mutants of pollux and dmi3; assay: Root architecture modification in rice Ospollux and Osdmi3 mutants; assay type: in vivo, Oryza sativa cv Nipponbare; details: 10^−8M; Ospollux and Osdmi3 mutants vs wild-type; FIG. 4
# Experimental: (§2) Oryza sativa cv Nipponbare wild-type and Tos17 insertion lines in POLLUX (line NC6453) and DMI3 were used for root architecture experiments (12, 13). Seeds were prepared by sterilizing with 2% bleach for 20 minutes, followed by 3, 5-minute rinses with sterile water. The sterile seeds were then imbibed overnight. Seeds were then plated on damp germination paper in Petri plates under sterile conditions and germinated in the dark at 25 degrees for 7 days. Germinated rice plants were then plated on Fahraeus medium on germination paper and grown at 22 degrees under constant light. After 5 days the plants were treated with 10^−8M LCOs and COs for 24 hours by submersion and re-plated onto Fåhræus Medium 1.5% agar plates (0.132 g/L CaCl2, 0.12 g/L MgSO4.7H2O, 0.1 g/L KH2PO4, 0.075 g/L Na2HPO4.2H2O, 5 mg/L Fe-citrate, and 0.07 mg/L each of MnCl2.4H2O, CuSO4.5H2O, ZnCl2, H3BO3, and Na2MoO4.2H2O, adjusted to pH 6.5 before autoclaving). As all signals were suspended in 50% ethanol, the appropriate concentration of ethanol in sterile DI water served as a control. Root system architecture was assessed after 2 weeks.
# Total lateral roots of rice were enumerated manually two weeks after application of 10^−8M COs and LCOs. As COs and LCOs were suspended in 50% ethanol, the control is sterile deionized water containing the appropriate amount of ethanol. […] Root system length was measured starting from the root-shoot junction to the tip of the longest root. The number of crown roots was assessed manually as those roots emerging from the root-shoot junction. […] Data were assessed for normality using the Shapiro-Wilk test (α=0.01), and statistical significance was determined using a paired t-test assuming unequal variances, or a Mann-Whitney-Wilcoxon Test if normality was not observed (α=0.05). […]
# To assess the role of the common symbiotic pathway in regulating root architecture modifications in response to purified LCOs and COs, we quantified root responses to mycorrhizal signals in rice knock-out mutants of pollux (upstream of calcium spiking) and dmi3 (downstream of calcium spiking).
# [4] = tested on: rice; assay: Root architecture modification in wild-type rice after submersion treatment; assay type: in vivo, Oryza sativa cv Nipponbare; details: 10^−8M, 24 hours submersion, assessed after two weeks, FIG. 3
# Experimental: as §2
# Total lateral roots of rice were enumerated manually two weeks after application of 10^−8M COs and LCOs. As COs and LCOs were suspended in 50% ethanol, the control is sterile deionized water containing the appropriate amount of ethanol. Lateral roots were defined as large and fine lateral roots emerging from crown roots, as well as fine lateral roots emerging from large lateral roots. Root system length was measured starting from the root-shoot junction to the tip of the longest root. The number of crown roots was assessed manually as those roots emerging from the root-shoot junction. Root type characterizations were based upon the descriptions in Gutjahr et al. (19). Data were assessed for normality using the Shapiro-Wilk test (α=0.01), and statistical significance was determined using a paired t-test assuming unequal variances, or a Mann-Whitney-Wilcoxon Test if normality was not observed (α=0.05). All statistical analysis was conducted using the R software package (20).
# [5] = tested on: Hard Red Spring Wheat (HRSW); assay: Seed treatment of hard red spring wheat in vitro (plates); assay type: in vivo; details: seed coating 125 μl of 10^−6 M; for Number of Lateral Roots / Number of Primary Roots: 4-5 days after transfer
# Experimental: Hard red spring wheat seeds were surface sterilized using ethanol and bleach. The sterilized seeds were then divided among 4 treatment groups of 5 grams each into 50 ml falcon tubes. To the control tube, 0.5% ethanol in water was added. To the CO4 tube, 125 μl of 10^−6 M CO4 solution was added. To the CO8 tube, 125 μl of 10^−6 M CO8 solution was added. To the “Consensus” tube, 125 μl of 10^−6 M solution of chitosan (CONSENSUS® chitosan; Loveland Products, Inc., Loveland, Colo.) was added. Each tube was then shaken to coat the seeds. The coated seeds were then placed on sterile Petri dishes in a hood and were left to dry overnight in the hood.
# The seeds were then germinated on damp germination paper in sterile Petri dishes for 4 days. The resulting seedlings were transferred to Fahräeus medium plates containing damp germination paper, and the plates were wrapped in Parafilm®. Fahräeus medium contains 0.5 m M MgSO4, 0.7 mM KH2PO4, 0.4 mM Na2HPO4, 0.02 mM Fe-EDTA, 0.01 mM MnSO4, 0.007 mM CuSO4, 0.006 mM ZnSO4, 0.016 mM H3BO3, 0.001 mM Na2MoO4, and 15 g/L Agar for plant tissue, adjusted to pH 6.5 before autoclaving. The plants were grown at room temperature under continuous light for 4-5 days. The number of primary roots (PR), lateral roots (LR), root system length (RSL) and dry weight (DW) was then measured for all plants.
Structure (SMILES),Number of Lateral Roots [1],Number of Primary Roots [1],Root System Length (cm) [1] [cm],Average Dry Weight [2],Average Root System Length [2],Average Seminal Roots [2],dependence of lateral root growth promotion on POLLUX / DMI3 [3],crown root growth [4],lateral root growth [4],Dry Weight [5] [g],Number of Lateral Roots [5],Number of Primary Roots [5],Root System Length (cm) ([5]; * significant at P < 0.05)
"CC(=O)N[C@H]1[C@H](O[C@H]2[C@H](O)[C@@H](NC(C)=O)C(O)O[C@@H]2CO)O[C@H](CO)[C@@H](O[C@@H]2O[C@H](CO)[C@@H](O[C@@H]3O[C@H](CO)[C@@H](O)[C@H](O)[C@H]3NC(C)=O)[C@H](O)[C@H]2NC(C)=O)[C@@H]1O (stereo partly shown) [CO4, tetra-N-acetylchitotetraose]",16.25,3.15,11.75,0.1225,23.76,4.45,dependent on both POLLUX and DMI3,promoted,promoted,0.0206,3.73,5.20,
"CC(=O)N[C@H]1[C@H](O[C@H]2[C@H](O)[C@@H](NC(C)=O)[C@H](O[C@H]3[C@H](O)[C@@H](NC(C)=O)[C@H](O[C@H]4[C@H](O)[C@@H](NC(C)=O)C(O)O[C@@H]4CO)O[C@@H]3CO)O[C@@H]2CO)O[C@H](CO)[C@@H](O[C@@H]2O[C@H](CO)[C@@H](O[C@@H]3O[C@H](CO)[C@@H](O[C@@H]4O[C@H](CO)[C@@H](O[C@@H]5O[C@H](CO)[C@@H](O)[C@H](O)[C@H]5NC(C)=O)[C@H](O)[C@H]4NC(C)=O)[C@H](O)[C@H]3NC(C)=O)[C@H](O)[C@H]2NC(C)=O)[C@@H]1O (stereo partly shown) [CO8, octa-N-acetyl-chitooctaose]",14.30,3.35,12.22,0.1229,21.42,4.75,dependent on POLLUX,promoted,promoted,0.0191,3.00,5.20,11.51
